Reference: the NIST ThermoML archive (doi:10.1021/acs.jced.6b00350)
“And” between values parts separate entries of the source, which are not always exact repeats. Identical values can stand only once.

Settings: Liquid, Hot wire method

FC(F)CC(F)(F)F [1,1,1,3,3-pentafluoropropane]
Settings | thermal conductivity
262.46 K, 31214 kPa | 0.1107 W/m/K
262.47 K, 25250 kPa | 0.1091 W/m/K
262.47 K, 31210 kPa | 0.1107 W/m/K
262.48 K, 8852 kPa | 0.1036 W/m/K
262.48 K, 14086 kPa | 0.1051 W/m/K
262.48 K, 14126 kPa | 0.1053 W/m/K
262.49 K, 4309 kPa | 0.1016 W/m/K
262.49 K, 4315 kPa | 0.1017 W/m/K
262.5 K, 19581 kPa | 0.1068 W/m/K
262.51 K, 19565 kPa | 0.1063 W/m/K
262.54 K, 274 kPa | 0.09981 W/m/K
262.55 K, 264 kPa | 0.09976 W/m/K
262.84 K, 36891 kPa | 0.1121 W/m/K
262.84 K, 36917 kPa | 0.112 W/m/K
262.84 K, 43922 kPa | 0.1137 W/m/K
262.85 K, 43951 kPa | 0.1138 W/m/K
262.85 K, 51258 kPa | 0.1158 W/m/K
262.86 K, 51253 kPa | 0.1158 W/m/K
262.86 K, 58802 kPa | 0.1175 W/m/K
262.87 K, 58823 kPa | 0.1177 W/m/K
262.87 K, 68778 kPa | 0.12 W/m/K
262.87 K, 68811 kPa | 0.1201 W/m/K
262.89 K, 68892 kPa | 0.1203 W/m/K
262.9 K, 68869 kPa | 0.1204 W/m/K
262.97 K, 25291 kPa | 0.1088 W/m/K
262.97 K, 31137 kPa | 0.1104 W/m/K
262.97 K, 31171 kPa | 0.1105 W/m/K
262.98 K, 25286 kPa | 0.1085 W/m/K
263 K, 8795 kPa | 0.1032 W/m/K
263 K, 14094 kPa | 0.105 W/m/K
263 K, 14117 kPa | 0.1048 W/m/K
263.01 K, 8802 kPa | 0.1032 W/m/K
263.01 K, 19580 kPa | 0.1068 W/m/K
263.01 K, 19587 kPa | 0.1069 W/m/K
263.02 K, 4283 kPa | 0.1017 W/m/K
263.04 K, 4280 kPa | 0.1019 W/m/K
263.09 K, 251 kPa | 0.09992 W/m/K
263.09 K, 258 kPa | 0.1003 W/m/K
263.37 K, 43936 kPa | 0.1139 W/m/K
263.37 K, 51250 kPa | 0.1158 W/m/K
263.37 K, 68817 kPa | 0.1201 W/m/K
263.38 K, 43899 kPa | 0.1139 W/m/K
263.38 K, 51246 kPa | 0.1158 W/m/K
263.38 K, 58767 kPa | 0.1179 W/m/K
263.38 K, 58789 kPa | 0.1175 W/m/K
263.38 K, 68795 kPa | 0.12 W/m/K
263.39 K, 68867 kPa | 0.1202 W/m/K
263.39 K, 68877 kPa | 0.1202 W/m/K
281.24 K, 123 kPa | 0.09294 W/m/K
281.26 K, 5085 kPa | 0.09534 W/m/K
281.26 K, 10502 kPa | 0.09742 W/m/K
281.26 K, 16109 kPa | 0.09972 W/m/K
281.27 K, 5081 kPa | 0.09537 W/m/K
281.27 K, 10497 kPa | 0.09773 W/m/K
281.27 K, 16120 kPa | 0.09962 W/m/K
281.27 K, 36450 kPa | 0.1067 W/m/K
281.28 K, 29163 kPa | 0.1037 W/m/K and 0.1042 W/m/K
281.28 K, 36455 kPa | 0.1069 W/m/K
281.29 K, 22340 kPa | 0.1017 W/m/K and 0.1016 W/m/K
281.31 K, 44258 kPa | 0.1094 W/m/K
281.32 K, 44270 kPa | 0.1086 W/m/K
281.36 K, 52956 kPa | 0.1121 W/m/K
281.37 K, 61439 kPa | 0.1132 W/m/K
281.37 K, 61447 kPa | 0.1138 W/m/K
281.39 K, 68582 kPa | 0.1153 W/m/K
281.4 K, 68575 kPa | 0.1156 W/m/K
281.68 K, 36448 kPa | 0.1069 W/m/K
281.69 K, 123 kPa | 0.09324 W/m/K
281.69 K, 16102 kPa | 0.09989 W/m/K
281.69 K, 16110 kPa | 0.0999 W/m/K
281.69 K, 36460 kPa | 0.1069 W/m/K
281.7 K, 123 kPa | 0.09319 W/m/K
281.7 K, 10499 kPa | 0.09772 W/m/K
281.7 K, 29156 kPa | 0.1046 W/m/K
281.71 K, 10506 kPa | 0.09793 W/m/K
281.71 K, 29164 kPa | 0.1045 W/m/K
281.71 K, 44250 kPa | 0.109 W/m/K
281.72 K, 5099 kPa | 0.09526 W/m/K
281.72 K, 22328 kPa | 0.1023 W/m/K
281.72 K, 22339 kPa | 0.1018 W/m/K
281.72 K, 44261 kPa | 0.1096 W/m/K
281.73 K, 5092 kPa | 0.09542 W/m/K
281.74 K, 52967 kPa | 0.1113 W/m/K
281.74 K, 61451 kPa | 0.1132 W/m/K
281.75 K, 52979 kPa | 0.1116 W/m/K
281.75 K, 61458 kPa | 0.1139 W/m/K
281.78 K, 68577 kPa | 0.1148 W/m/K
281.78 K, 68579 kPa | 0.1154 W/m/K
282.14 K, 36443 kPa | 0.1066 W/m/K
282.14 K, 36448 kPa | 0.1061 W/m/K
282.16 K, 44239 kPa | 0.109 W/m/K
282.16 K, 44256 kPa | 0.1087 W/m/K
282.17 K, 29157 kPa | 0.1038 W/m/K
282.17 K, 29166 kPa | 0.1045 W/m/K
282.18 K, 16109 kPa | 0.09967 W/m/K
282.18 K, 52974 kPa | 0.1114 W/m/K
282.18 K, 61442 kPa | 0.114 W/m/K
282.18 K, 61445 kPa | 0.1137 W/m/K
282.19 K, 16097 kPa | 0.09999 W/m/K
282.19 K, 52971 kPa | 0.1111 W/m/K
282.2 K, 10491 kPa | 0.09788 W/m/K
282.2 K, 22326 kPa | 0.1018 W/m/K
282.2 K, 22330 kPa | 0.1022 W/m/K
282.21 K, 122 kPa | 0.09344 W/m/K
282.21 K, 123 kPa | 0.09288 W/m/K
282.21 K, 10493 kPa | 0.0975 W/m/K
282.21 K, 68577 kPa | 0.1158 W/m/K
282.22 K, 5074 kPa | 0.09546 W/m/K
282.22 K, 68599 kPa | 0.1157 W/m/K
282.23 K, 5088 kPa | 0.0957 W/m/K
282.64 K, 61432 kPa | 0.1136 W/m/K
282.65 K, 36437 kPa | 0.1064 W/m/K
282.65 K, 44235 kPa | 0.109 W/m/K
282.65 K, 61439 kPa | 0.1136 W/m/K
282.66 K, 44247 kPa | 0.1092 W/m/K
282.67 K, 52971 kPa | 0.1109 W/m/K
282.67 K, 52972 kPa | 0.1115 W/m/K
282.68 K, 29156 kPa | 0.104 W/m/K
282.68 K, 29162 kPa | 0.104 W/m/K
282.68 K, 68589 kPa | 0.1157 W/m/K
282.69 K, 68577 kPa | 0.1155 W/m/K
282.71 K, 16110 kPa | 0.09975 W/m/K and 0.09954 W/m/K
282.72 K, 22340 kPa | 0.1019 W/m/K
282.73 K, 22342 kPa | 0.1021 W/m/K
282.74 K, 10500 kPa | 0.09762 W/m/K
282.77 K, 5087 kPa | 0.09576 W/m/K
282.78 K, 123 kPa | 0.09344 W/m/K and 0.09326 W/m/K
282.78 K, 5079 kPa | 0.0959 W/m/K
283.17 K, 61441 kPa | 0.1135 W/m/K
283.17 K, 61445 kPa | 0.1138 W/m/K
283.19 K, 68547 kPa | 0.1156 W/m/K
283.19 K, 68582 kPa | 0.1158 W/m/K
283.2 K, 36442 kPa | 0.1068 W/m/K
283.2 K, 36446 kPa | 0.1068 W/m/K
283.2 K, 44231 kPa | 0.109 W/m/K
283.2 K, 44239 kPa | 0.1089 W/m/K
283.2 K, 52973 kPa | 0.1113 W/m/K
283.21 K, 52984 kPa | 0.1112 W/m/K
